In ChEMBL document CHEMBL4425090, “Antimalarial Oxoprotoberberine Alkaloids from the Leaves of Miliusa cuneata” (J Nat Prod, 2016):

Key:
KB = assay: Cytotoxicity against human KB cells by sulforhodamine B assay; assay type: functional, cell-based
Vero = assay: Cytotoxicity against African green monkey Vero cells by sulforhodamine B assay; assay type: cell-based; conditions: Chlorocebus sabaeus
Plasmodium falciparum [1] = assay: Antiplasmodial activity against chloroquine/antifolate-sensitive Plasmodium falciparum TM4 infected in human RBC incubated for 18 to 20 hrs by microdilution radioisotope method; assay type: functional, organism-based
Plasmodium falciparum [2] = assay: Antiplasmodial activity against multidrug-resistant Plasmodium falciparum K1 infected in human RBC incubated for 18 to 20 hrs by microdilution radioisotope method; assay type: functional, organism-based

Row | Compound | IC50 (KB) [µM] | IC50 (Vero) [µM] | IC50 (Plasmodium falciparum [1]) [µM] | IC50 (Plasmodium falciparum [2]) [µM]
1 | COc1cc(O)c2c(=O)c(OC)c(-c3ccc4c(c3)OCO4)oc2c1 | > 47.8 | > 47.8 | > 47.8 | > 47.8
2 | O=C(/C=C/c1ccc(O)c(O)c1)NCCc1ccc(O)cc1 | > 47.8 | > 47.8 | > 47.8 | 23.8
3 | COc1cc(OC)c2c(=O)c(OC)c(-c3ccc(O)c(OC)c3)oc2c1 | > 47.8 | > 47.8 | 31.5 | 27.9
4 | CC(C)=CCC/C(C)=C/[C@H]1OC(=O)C[C@]12C[C@H](O)C=CC2=O | 10.2 | 13.5 | 11.1 | 9.1
5 | COc1cc2c(c(OC)c1OC)CCN1C(=O)c3c(ccc(O)c3O)C[C@@H]21 | > 47.8 | > 47.8 | > 47.8 | 29.1
6 | COc1cc2c(c(O)c1OC)CCn1c-2cc2ccc(O)c(O)c2c1=O | > 47.8 | > 47.8 | 19.3 | 26.3
7 | COc1cc2c(c(OC)c1O)CCn1c-2cc2ccc(O)c(O)c2c1=O | > 47.8 | > 47.8 | 41.4 | 32.4
8 | COc1cc2c(c(OC)c1O)CCN1C(=O)c3c(ccc(O)c3O)C[C@@H]21 | > 47.8 | > 47.8 | 38.1 | 26.1
9 | COc1cc2c(c(OC)c1OC)CCn1c-2cc2ccc(O)c(O)c2c1=O | > 47.8 | > 47.8 | 25.6 | 10.8
10 | COc1cc(-c2oc3cc(OC)c(OC)c(O)c3c(=O)c2OC)ccc1O [CHRYSOSPLENOL B] | > 47.8 | > 47.8 | 39.5 | 12.4
11 | CC1(C)N=C(N)N=C(N)N1c1ccc(Cl)cc1 [CYCLOGUANIL] | – | – | – | 3.2
12 | COc1cccc2c1C(=O)c1c(O)c3c(c(O)c1C2=O)C[C@@](O)(C(=O)CO)C[C@@H]3O[C@H]1C[C@H](N)[C@H](O)[C@H](C)O1 [DOXORUBICIN] | 1 | – | – | –
13 | Cc1c2ccncc2c(C)c2c1[nH]c1ccccc12 [ELLIPTECINE] | – | 0.4 | – | –
14 | O=C(/C=C/c1ccc(O)cc1)NCCc1ccc(O)cc1 [N-P-COUMAROYL TYRAMINE] | > 47.8 | > 47.8 | > 47.8 | > 47.8
15 | COc1cc(/C=C/C(=O)NCCc2ccc(O)cc2)ccc1O [N-TRANS-FERULOYL TYRAMINE] | > 47.8 | > 47.8 | > 47.8 | 54.9
16 | COc1cc(O)c2c(=O)c(OC)c(-c3ccc(O)c(OC)c3)oc2c1 [PACHYPODOL] | > 47.8 | > 47.8 | > 47.8 | > 47.8
17 | CCc1nc(N)nc(N)c1-c1ccc(Cl)cc1 [PYRIMETHAMINE] | – | – | – | 31
18 | COc1cc([C@H]2OC[C@H]3[C@@H]2CO[C@@H]3c2cc(OC)c(O)c(OC)c2)cc(OC)c1O [SYRINGARESINOL] | > 47.8 | > 47.8 | > 47.8 | > 47.8
